According to patent publication US20130011870A1, “Method For Assaying Diseases Characterized By Dyslipidemia” (priority 2010, published 2013):

System: serine palmitoyltransferase (SPT) in SPTLC3 overexpressing HEK293 cells
Assay: In vitro SPT activity with various acyl-CoA substrates (Example 1, FIG. 3)
Format: biochemical
Settings: acyl-CoA 50 μM; activity with palmitoyl-CoA defined as 100%
Method: FIG. 3 In vitro SPT activity with various acyl-CoA substrates (C12-CoA, C14-CoA, C16-CoA and C18:1-CoA) in control, SPTLC1, SPTLC2 and SPTLC3 overexpressing HEK293 cells. […] (For comparison the activity with palmitoyl-CoA is defined as 100%.)
All acyl-CoAs were used at the same concentration (50 μM).

## CCCCCCCCCCCC(=O)SCCNC(=O)CCNC(=O)[C@H](O)C(C)(C)COP(=O)(O)OP(=O)(O)OC[C@H]1O[C@@H](n2cnc3c(N)ncnc32)[C@H](O)[C@@H]1OP(=O)(O)O [lauryl-CoA]
  SPT activity with the acyl-CoA substrate in SPTLC3 overexpressing cells compared with control, SPTLC1 and SPTLC2 cells: significantly higher activity

## CCCCCCCC/C=C\CCCCCCCC(=O)SCCNC(=O)CCNC(=O)[C@H](O)C(C)(C)COP(=O)(O)OP(=O)(O)OC[C@H]1O[C@@H](n2cnc3c(N)ncnc32)[C@H](O)[C@@H]1OP(=O)(O)O [oleoyl-CoA]
  SPT activity with the acyl-CoA substrate in SPTLC3 overexpressing cells compared with control, SPTLC1 and SPTLC2 cells: comparable for all cell lines

## CCCCCCCCCCCCCCCCCC(=O)SCCNC(=O)CCNC(=O)[C@H](O)C(C)(C)COP(=O)(O)OP(=O)(O)OC[C@H]1O[C@@H](n2cnc3c(N)ncnc32)[C@H](O)[C@@H]1OP(=O)(O)O [stearoyl-CoA]
  SPT activity with the acyl-CoA substrate in SPTLC3 overexpressing cells compared with control, SPTLC1 and SPTLC2 cells: comparable for all cell lines
